These results are taken from patent US10144715B2, “Piperazine derivatives as liver X receptor modulators” (priority 2014, dated 2018).

Read-outs that look alike come from different tables or passages of the source.

One test concerns the target LXR α LBD protein (Homo sapiens (Human), UniProt Q13133). Put plainly: LXR α radioligand binding assay (SPA, competition with [3H]TO901317). To be noted: read-out: LXRα Binding Ki.
Test [1] concerns the target Gal4 DNA binding domain fused to the LBD of LXRα in HEK293 cells (Homo sapiens (Human), UniProt Q13133). In words: LXR luciferase transcriptional reporter gene assay, agonist mode, LXRα. The format is cell-based. The following applies: for EC50: read-out: Cell LXRα EC50. In general terms: A reporter such as luciferase makes a cellular process visible.
[2] abbreviates: Biological Test Example 2, agonist mode.

Chain of LXR α LBD protein (Q13133 209-447): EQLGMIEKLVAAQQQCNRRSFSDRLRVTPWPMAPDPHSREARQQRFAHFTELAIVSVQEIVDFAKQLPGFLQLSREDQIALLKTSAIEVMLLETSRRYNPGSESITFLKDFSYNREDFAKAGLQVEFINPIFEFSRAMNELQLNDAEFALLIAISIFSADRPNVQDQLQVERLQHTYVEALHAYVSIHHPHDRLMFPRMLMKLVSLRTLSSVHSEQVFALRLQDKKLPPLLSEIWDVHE
Chain of Gal4 DNA binding domain fused to the LBD of LXRα in HEK293 cells (Q13133 209-447): as above

In the case of `CC(F)(F)[C@@H]1CN(c2cccc(S(C)(=O)=O)c2)CCN1c1nccc(C(F)(F)F)n1` [7-26, (S)-2-(2-(1,1-difluoroethyl)-4-(3-(methylsulfonyl)phenyl)piperazin-1-yl)-4-(trifluoromethyl)pyrimidine], the inhibitory constant (Ki) (in general, a dissociation constant, usually derived from enzyme kinetics or from competition with a known ligand) at LXR α LBD protein turned out to be 193 nM. For the same compound, in test [1], the “Cell LXRα efficacy” value is 1211 (37) %. Besides, the EC50 (usually the concentration at which the effect is half-maximal) in test [1] (agonist mode) was found to be 1210 nM.

As for `CS(=O)(=O)c1cccc(N2CCN(c3nccc(C(F)(F)F)n3)[C@@H](C(F)(F)F)C2)c1` [7-27, (R)-2-(4-(3-(methylsulfonyl)phenyl)-2-(trifluoromethyl)piperazin-1-yl)-4-(trifluoromethyl)pyrimidine], the Ki on LXR α LBD protein was 7190 nM. Also, the EC50 in test [1] was greater than 20000 nM.

Regarding `CS(=O)(=O)c1cccc(N2CCN(c3nccc(C(F)(F)F)n3)[C@H](C(F)(F)F)C2)c1` [7-28, (S)-2-(4-(3-(methylsulfonyl)phenyl)-2-(trifluoromethyl)piperazin-1-yl)-4-(trifluoromethyl)pyrimidine], the inhibitory constant (Ki) on LXR α LBD protein was 422 nM. Moreover, in test [1], the “Cell LXRα efficacy” value is given as 2235 (40) % and the EC50 came to 2240 nM.

As to `CC(C)[C@@H]1CN(c2cccc(S(C)(=O)=O)c2)CCN1c1ccc(C(F)F)cn1` [7-34, (R)-1-(5-(difluoromethyl)pyridin-2-yl)-2-isopropyl-4-(3-(methylsulfonyl)phenyl)piperazine], the Ki on LXR α LBD protein amounted to 3280 nM. Moreover, the “Cell LXRα efficacy” value in test [1] was 13999 (55) %. Further, the concentration giving a half-maximal response (EC50) in test [1] (agonist mode) amounted to 14000 nM.

Take `CC(C)[C@@H]1CN(c2ccc(F)c(S(C)(=O)=O)c2)CCN1c1ncc(C(F)(F)F)cc1Cl` [7-41, (R)-1-(3-chloro-5-(trifluoromethyl)pyridin-2-yl)-4-(4-fluoro-3-(methylsulfonyl)phenyl)-2-isopropylpiperazine]: the Ki at LXR α LBD protein was 72 nM. Moreover, in test [1], the “Cell LXRα efficacy” value is 949 (84) %. Also, the EC50 in test [1] (agonist mode) was 949 nM.

Take `CC(C)[C@@H]1CN(c2ccc(F)c(S(C)(=O)=O)c2)CCN1c1ncc(C(F)(F)F)cc1[N+](=O)[O-]` [7-42, (R)-4-(4-fluoro-3-(methylsulfonyl)phenyl)-2-isopropyl-1-(3-nitro-5-(trifluoromethyl)pyridin-2-yl)piperazine]: the Ki on LXR α LBD protein came to 623 nM. Moreover, the “Cell LXRα efficacy” value in test [1] is listed as 3110 (46) %. For the same compound, in test [1] (agonist mode), the EC50 amounted to 3110 nM.

Take `COC(=O)c1ccc(N2CCN(c3ccc(F)c(S(C)(=O)=O)c3)C[C@H]2C(C)C)nc1C(F)(F)F` [7-43, methyl (R)-6-(4-(4-fluoro-3-(methylsulfonyl)phenyl)-2-isopropylpiperazin-1-yl)-2-(trifluoromethyl)nicotinate]: the Ki at LXR α LBD protein is 130 nM. Moreover, in test [1], the “Cell LXRα efficacy” value is listed as 649 (77) %. Moreover, the EC50 in test [1] (agonist mode) came to 649 nM.

`Cc1ccc(N2CCN(c3cccc(S(C)(=O)=O)c3)C[C@H]2C(C)C)nn1` [7-46, (R)-3-(2-isopropyl-4-(3-(methylsulfonyl)phenyl)piperazin-1-yl)-6-methylpyridazine]: the inhibition constant Ki at LXR α LBD protein was 13600 nM. The “Cell LXRα efficacy” value in test [1] is 14681 (71) %. Further, the EC50 in test [1] (agonist mode) stood at 14700 nM.

For `CC(C)[C@@H]1CN(c2cccc(S(C)(=O)=O)c2)CCN1c1ccc(C2CC2)nn1` [7-47, (R)-3-cyclopropyl-6-(2-isopropyl-4-(3-(methylsulfonyl)phenyl)piperazin-1-yl)pyridazine], the Ki on LXR α LBD protein amounted to 3100 nM. In test [1], the “Cell LXRα efficacy” value is 4921 (84) % and the EC50 is 4920 nM.

`CC(C)[C@@H]1CN(c2cccc(S(C)(=O)=O)c2)CCN1c1ccc(C(F)(F)F)nn1` [7-48, (R)-3-(2-isopropyl-4-(3-(methylsulfonyl)phenyl)piperazin-1-yl)-6-(trifluoromethyl)pyridazine]: on LXR α LBD protein, the Ki stood at 877 nM. Moreover, in test [1], the “Cell LXRα efficacy” value is on record as 2110 (98) % and the EC50 was determined as 2110 nM.

Consider `CC(C)[C@@H]1CN(c2ccc(F)c(S(C)(=O)=O)c2)CCN1c1ccc(C(F)(F)F)nn1` [7-49, (R)-3-(4-(4-fluoro-3-(methylsulfonyl)phenyl)-2-isopropylpiperazin-1-yl)-6-(trifluoromethyl)pyridazine], for which the Ki at LXR α LBD protein was 508 nM. For the same compound, the “Cell LXRα efficacy” value in test [1] was 1335 (112) %. In test [1] (agonist mode), the EC50 was determined as 1340 nM.

Turning to `CCOC(=O)c1cnc(N2CCN(c3ccc(F)c(S(C)(=O)=O)c3)C[C@H]2CC(C)C)nc1C(F)(F)F` [9-7, ethyl (R)-2-(4-(4-fluoro-3-(methylsulfonyl)phenyl)-2-isobutylpiperazin-1-yl)-4-(trifluoromethyl)pyrimidine-5-carboxylate], on LXR α LBD protein, the Ki was 33 nM. Besides, the “Cell LXRα efficacy” value in test [1] is 960 (34) %. Moreover, the EC50 in test [1] (agonist mode) came to 960 nM.

For `CCOC(=O)c1cnc(N2CCN(c3ccc(COC(C)=O)c(S(C)(=O)=O)c3)C[C@H]2C(C)C)nc1C(F)(F)F` [9-10, ethyl (R)-2-(4-(4-(acetoxymethyl)-3-(methylsulfonyl)phenyl)-2-isopropylpiperazin-1-yl)-4-(trifluoromethyl)pyrimidine-5-carboxylate], the Ki at LXR α LBD protein amounted to 96 nM. Besides, in test [1], the “Cell LXRα efficacy” value is recorded as 243 (59) %. For the same compound, in test [1] (agonist mode), the concentration for a half-maximal effect (EC50) was 243 nM.

As for `CCOC(=O)c1cnc(N2CCN(c3ccc(-c4nc(C)no4)c(S(C)(=O)=O)c3)C[C@H]2C(C)C)nc1C(F)(F)F` [9-12, ethyl (R)-2-(2-isopropyl-4-(4-(3-methyl-1,2,4-oxadiazol-5-yl)-3-(methylsulfonyl)phenyl)piperazin-1-yl)-4-(trifluoromethyl)pyrimidine-5-carboxylate], on LXR α LBD protein, the inhibition constant (Ki) was found to be 2290 nM. The “Cell LXRα efficacy” value in test [1] is given as 15144 (26) %. The EC50 in test [1] (agonist mode) was determined as 15100 nM.

In the case of `CCOC(=O)c1cnc(N2CCN(c3ccc(-c4nc(C(N)=O)cs4)c(S(C)(=O)=O)c3)C[C@H]2C(C)C)nc1C(F)(F)F` [9-14, ethyl (R)-2-(4-(4-(4-carbamoylthiazol-2-yl)-3-(methylsulfonyl)phenyl)-2-isopropylpiperazin-1-yl)-4-(trifluoromethyl)pyrimidine-5-carboxylate], the Ki at LXR α LBD protein is 407 nM. In test [1], the “Cell LXRα efficacy” value was 3003 (28) % and the EC50 stood at 3000 nM.

Regarding `Cc1nnc(-c2ccc(N3CCN(c4ncc(CO)c(C(F)(F)F)n4)[C@H](C(C)C)C3)cc2S(C)(=O)=O)s1` [11-11, (R)-(2-(2-isopropyl-4-(4-(5-methyl-1,3,4-thiadiazol-2-yl)-3-(methylsulfonyl)phenyl)piperazin-1-yl)-4-(trifluoromethyl)pyrimidin-5-yl)methanol], the Ki on LXR α LBD protein stood at 2050 nM. For the same compound, the “Cell LXRα efficacy” value in test [1] is recorded as 3508 (31) %. Moreover, the EC50 in test [1] (agonist mode) is 3510 nM.

With `CC(C)[C@@H]1CN(c2ccc(-c3nc(C(N)=O)cs3)c(S(C)(=O)=O)c2)CCN1c1ncc(CO)c(C(F)(F)F)n1` [11-13, (R)-2-(4-(4-(5-(hydroxymethyl)-4-(trifluoromethyl)pyrimidin-2-yl)-3-isopropylpiperazin-1-yl)-2-(methylsulfonyl)phenyl)thiazole-4-carboxamide], the Ki on LXR α LBD protein turned out to be 706 nM. The “Cell LXRα efficacy” value in test [1] was 2145 (52) %. For the same compound, the EC50 in test [1] (agonist mode) is 2150 nM.

For `CC(O)c1cnc(N2CCN(c3ccc(F)c(S(C)(=O)=O)c3)C[C@H]2c2ccc(F)cc2)nc1C(F)(F)F` (stereo partly drawn) [12-9, 1-(2-((R)-4-(4-fluoro-3-(methylsulfonyl)phenyl)-2-(4-fluorophenyl)piperazin-1-yl)-4-(trifluoromethyl)pyrimidin-5-yl)ethan-1-ol], at LXR α LBD protein, the Ki came to 896 nM. In addition, the “Cell LXRα efficacy” value in test [1] is 4884 (19) %. In addition, in test [1] (agonist mode), the EC50 stood at 4880 nM.

For `CC(C)[C@@H]1CN(c2ccc(CN)c(S(C)(=O)=O)c2)CCN1c1nccc(C(F)(F)F)n1` [15-11, (R)-(4-(3-isopropyl-4-(4-(trifluoromethyl)pyrimidin-2-yl)piperazin-1-yl)-2-(methylsulfonyl)phenyl)methanamine], at LXR α LBD protein, the Ki was determined as 2180 nM. Besides, the “Cell LXRα efficacy” value in test [1] is given as 4307 (42) %. Further, in test [1] (agonist mode), the EC50 is 4310 nM.

On to `CC(C)[C@H]1CN(c2ccc(CO)c(S(C)(=O)=O)c2)CCN1Cc1ccc(C(F)(F)F)c(F)c1` [47-3, (S)-(4-(4-(3-fluoro-4-(trifluoromethyl)benzyl)-3-isopropylpiperazin-1-yl)-2-(methylsulfonyl)phenyl)methanol], for which the Ki on LXR α LBD protein is 422 nM. For the same compound, in test [1], the “Cell LXRα efficacy” value is given as 1280 (60) %. Besides, in test [1] (agonist mode), the EC50 was determined as 1280 nM.

For the compound `CC(C)[C@H]1CN(c2cccc(S(C)(=O)=O)c2)CCN1CC1CCC(C)(C)CC1` [48-2, (S)-1-((4,4-dimethylcyclohexyl)methyl)-2-isopropyl-4-(3-(methylsulfonyl)phenyl)piperazine], the inhibition constant (Ki) on LXR α LBD protein was found to be 81 nM. Also, in test [1], the “Cell LXRα efficacy” value is on record as 175 (81) % and the EC50 came out at 175 nM.

In the case of `CC(C)[C@H]1CN(c2ccc(CO)c(S(C)(=O)=O)c2)CCN1CC1CCN(CC(F)(F)F)CC1` [48-50, (S)-(4-(3-isopropyl-4-((1-(2,2,2-trifluoroethyl)piperidin-4-yl)methyl)piperazin-1-yl)-2-(methylsulfonyl)phenyl)methanol], the Ki at LXR α LBD protein (Biological Test Example 1) worked out at 587 nM. The “Cell LXRα efficacy” value in test [1] was 386 (77) %. The EC50 in test [1] (setting [2]) worked out at 386 nM.

Consider `CS(=O)(=O)c1cccc(N2CCN(CC3CCC(C(F)(F)F)O3)[C@@H](c3ccc(F)cc3)C2)c1` (stereo partly drawn) [48-73, (2S)-2-(4-fluorophenyl)-4-(3-(methylsulfonyl)phenyl)-1-((5-(trifluoromethyl)tetrahydrofuran-2-yl)methyl)piperazine], for which, at LXR α LBD protein, the Ki amounted to 2250 nM. The EC50 in test [1] (setting [2]) is greater than 20000 nM.

For `CS(=O)(=O)c1cccc(N2CCN(CC3CCC(C(F)(F)F)O3)[C@@H](c3ccc(F)cc3)C2)c1` (stereo partly drawn) [48-74, (2S)-2-(4-fluorophenyl)-4-(3-(methylsulfonyl)phenyl)-1-((5-(trifluoromethyl)tetrahydrofuran-2-yl)methyl)piperazine], at LXR α LBD protein (Biological Test Example 1), the inhibition constant Ki stood at 11400 nM. In addition, the EC50 in test [1] (setting [2]) is greater than 20000 nM.
